Assay results: publication PMC10485906, “Development of a Dihydroquinoline–Pyrazoline GluN2C/2D-Selective Negative Allosteric Modulator of the N-Methyl-D-aspartate Receptor” (ACS Chemical Neuroscience, 2023)
“And” between values parts separate entries of the source, which are not always exact repeats. Identical values can stand only once. Marks after values point to notes of the source that are not given here.

Target: GluN1/GluN2C (Rattus norvegicus, UniProt Q00961)
Test: Two-electrode voltage-clamp recordings, Xenopus laevis oocytes, GluN1/GluN2C
Type: cell-based
Set-up: GluN2B (NM_012574.1), GluN2C (NM_012575.3), and GluN2D (NM_022797.2) were provided by; expressed in transfected cells; host or cells: Xenopus laevis oocytes (cRNA injection)
Conditions: for I / I control GluN2C: tested at 10 μM (footnote b); for I / I control GluN2C / I3 μM/Icontrol GluN2C: 100 μM glutamate, 30 μM glycine; for I3 μM/Icontrol GluN2C: tested at 3 μM
Experimental: All target compounds were evaluated for NMDAR antagonism using two-electrode voltage-clamp recordings from Xenopus laevis oocytes coexpressing recombinant GluN1 and GluN2A-D subunits (Table 1).[32],[42],[33] All analogues were assessed as either a racemic (2b, 2e–2r) or diastereomeric (2d) mixture to simplify purification and streamline in vitro analysis. […] Moreover, as illustrated by the significant loss of NMDAR activity observed with nitrile 2e, the DQP allosteric site necessitated an H-bond donor/acceptor relationship at the carboxylate position. […] The loss of NMDAR activity observed with the trifluoro analogue 2j (Table S1) reinforced the necessity for an H-bond donor/acceptor relationship to maintain allosteric binding and established that fluorine substitution alone is ineffective. […] A single methyl substitution of the amide in compound 2q improved selectivity against GluN2A and had similar potency as 2a, whereas dual methyl substitution reduced potency (2r). We expect that this is likely due to the ability of the […] of the amide to accept hydrogen bonds while the amide can readily donate a proton.
Unfertilized Xenopus laevis oocytes were obtained from Ecocyte (Austin, TX), or ovaries were purchased from Xenopus 1 (Dexter, MI) and oocytes prepared as previously described.[42],[47] Two-electrode voltage-clamp recordings were performed on oocytes expressing recombinant rat GluN1/GluN2A, GluN1/GluN2B, GluN1/GluN2C, or GluN1/GluN2D. cDNAs for rat GluN1-1a (referred to as GluN1; NCBI Reference Sequence NM_017010.2), GluN2A (NM_012573.4), GluN2B (NM_012574.1), GluN2C (NM_012575.3), and GluN2D (NM_022797.2) were provided by Dr. S. Heinemann from the Salk Institute, Dr. S. Nakanishi from Kyoto University, and Dr. P. Seeburg from the University of Heidelberg. Oocyte isolation, cRNA synthesis, and cRNA injections were performed as previously described.[32],[33],[47] Briefly, Xenopus laevis oocytes were injected with 5–10 ng of cRNA in RNase-free water with the GluN1:GluN2 ratio ranging from 1:1 to 1:5. Oocytes were incubated at 15–19 °C in Barth’s solution consisting of (in mM) 88 NaCl, 1 KCl, 2.4 NaHCO3, 10 HEPES, 0.82 MgSO4, 0.33 Ca(NO3)2, and 0.41 CaCl2 supplemented with 100 μg/mL gentamycin, 40 μg/mL streptomycin, and 50 μg/mL penicillin. Recordings were performed 2–4 days after injection with extracellular recording solution containing (in mM) 90 NaCl, 1 KCl, 10 HEPES, 0.5 BaCl2, and 0.01 EDTA at pH 7.4 adjusted with NaOH. To prevent a gradual increase in current response over the course of the experiment, some oocytes expressing GluN1/GluN2A were injected with 20–50 nL of 2–50 mM K-BAPTA. Concentration–response curves for test compounds were generated by applying a maximally effective concentration of glutamate (100 μM) and glycine (30 μM), followed by glutamate and glycine with variable concentrations of test compounds up to 30 μM. The test compounds were prepared as 20 mM stock solutions in DMSO and diluted to the final concentration in recording solution. The DMSO content was 0.05–0.5% (v/v). […] Methods for off-target analysis are given in the Supporting Information.
Confidence intervals were determined for the log(IC50). The time course of relaxation during inhibitor application or deactivation following rapid removal of NMDA or glutamate was fitted by the equation [drawing 5] 2

Sequence of GluN1/GluN2C (Q00961 20-1237, other chains not shown): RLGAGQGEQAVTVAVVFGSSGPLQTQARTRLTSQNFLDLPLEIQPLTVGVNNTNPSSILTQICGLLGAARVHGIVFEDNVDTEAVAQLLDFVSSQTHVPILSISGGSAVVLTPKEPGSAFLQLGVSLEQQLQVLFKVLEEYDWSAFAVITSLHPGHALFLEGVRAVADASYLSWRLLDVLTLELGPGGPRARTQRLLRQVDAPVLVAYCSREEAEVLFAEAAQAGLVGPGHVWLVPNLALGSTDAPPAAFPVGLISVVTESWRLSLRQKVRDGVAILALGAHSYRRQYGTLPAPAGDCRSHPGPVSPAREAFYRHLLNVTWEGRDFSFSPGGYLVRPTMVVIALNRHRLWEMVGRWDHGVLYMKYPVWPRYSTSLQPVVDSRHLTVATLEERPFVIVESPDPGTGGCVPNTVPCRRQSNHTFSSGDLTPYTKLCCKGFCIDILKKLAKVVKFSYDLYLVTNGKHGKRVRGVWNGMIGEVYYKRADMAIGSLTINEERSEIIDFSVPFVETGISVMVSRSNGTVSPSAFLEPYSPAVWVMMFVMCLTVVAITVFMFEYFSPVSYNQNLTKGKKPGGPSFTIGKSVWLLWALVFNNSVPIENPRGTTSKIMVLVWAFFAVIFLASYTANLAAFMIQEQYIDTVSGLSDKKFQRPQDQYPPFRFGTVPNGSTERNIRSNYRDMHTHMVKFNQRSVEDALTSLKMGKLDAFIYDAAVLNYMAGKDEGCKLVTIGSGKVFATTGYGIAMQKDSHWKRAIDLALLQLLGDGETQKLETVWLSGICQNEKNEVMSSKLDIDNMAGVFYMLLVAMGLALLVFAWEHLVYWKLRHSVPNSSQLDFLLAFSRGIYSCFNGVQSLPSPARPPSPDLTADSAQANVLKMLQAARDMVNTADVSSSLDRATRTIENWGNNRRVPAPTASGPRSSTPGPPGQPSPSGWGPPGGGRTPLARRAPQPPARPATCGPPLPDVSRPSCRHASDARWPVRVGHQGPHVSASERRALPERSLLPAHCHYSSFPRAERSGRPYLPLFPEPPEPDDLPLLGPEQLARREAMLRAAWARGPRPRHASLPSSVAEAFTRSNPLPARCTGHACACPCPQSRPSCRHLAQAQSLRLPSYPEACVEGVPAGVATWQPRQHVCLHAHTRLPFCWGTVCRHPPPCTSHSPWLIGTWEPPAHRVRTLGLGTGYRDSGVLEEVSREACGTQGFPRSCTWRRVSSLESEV

## CNC(=O)CC(F)(F)C(=O)N1N=C(c2c(-c3ccc(Cl)cc3)c3ccccc3[nH]c2=O)CC1c1ccc(Cl)cc1 (stereo not drawn) [2q]
Mean ± SEM
  I / I control GluN2C: 16 ± 1.6 ^b (3, 20) %

## O=C(O)CC(F)(F)C(=O)N1N=C(c2c(-c3ccc(Cl)cc3)c3ccccc3[nH]c2=O)C[C@H]1c1ccc(Cl)cc1 [(S)-(−)-2i]
1 µM compound, 100 µM glutamate, 30 µM glycine, mean ± SEM
  % control GluN1/GluN2C: 16 ± 2.9%
abstract
  selectivity for GluN2C-containing NMDARs compared to GluN2A- and GluN2B-containing receptors: > 100 fold
Mean ± SEM
  I3 μM/Icontrol GluN2C: 13 ± 2.6 (3, 16) %

## O=C(O)CC(F)(F)C(=O)N1N=C(c2c(-c3ccc(Cl)cc3)c3ccccc3[nH]c2=O)CC1c1ccc(Cl)cc1 (stereo not drawn) [2i]
Mean ± SEM
  I3 μM/Icontrol GluN2C: 13 ± 2.5% and 13 ± 2.5 ^b (2,12) %
Mean ± SEM, listed as racemic 2i
  I3 μM/Icontrol GluN2C: 13 ± 2.5 (2, 12) %

## NC(=O)CC(F)(F)C(=O)N1N=C(c2c(-c3ccc(Cl)cc3)c3ccccc3[nH]c2=O)CC1c1ccc(Cl)cc1 (stereo not drawn) [2k]
Mean ± SEM
  I3 μM/Icontrol GluN2C: 22 ± 5.2 ^b (3,16) %

## CC(C)(C)COC(=O)CC(F)(F)C(=O)N1N=C(c2c(-c3ccc(Cl)cc3)c3ccccc3[nH]c2=O)CC1c1ccc(Cl)cc1 (stereo not drawn) [2o]
Mean ± SEM
  I / I control GluN2C: 87 ± 0.8%

## CN(C)C(=O)CC(F)(F)C(=O)N1N=C(c2c(-c3ccc(Cl)cc3)c3ccccc3[nH]c2=O)CC1c1ccc(Cl)cc1 (stereo not drawn) [2r]
Mean ± SEM
  I / I control GluN2C: 28 ± 2.2 ^b (4,20) %
